In this experiment the test system is RPE1 cells. Briefly: Cell death after passing a constriction in micro-channels, with DNA repair inhibited by ATMi. Type of experiment: cell-based. The following applies: ATMi 10 μM. Here is the method: Micro-channels were prepared as previously described (Heuzé M L et al, 2011, 769, pp. 415-434). Briefly, polydimethylsiloxane (PDMS) (GE Silicones) was used to prepare 7 μm wide and 5 μm high micro-channels with constrictions of varying lengths and widths from a self-made mold. For HeLa cells, larger channels of 12 μm width and 5 μm height were used because of their larger nuclei. Channels with constrictions were incubated with 15 μg/mL of fibronectin for 30 min then washed with PBS at least 3 times and finally incubated with medium (containing drugs if necessary) for at least 5 hours before adding cells. Not that the height inside constriction varied depending on the width: height was 2 μm for 1.5 μm wide constrictions, 3.5 μm for 2 μm wide constrictions, 4 μm for 3 μm and 4 μm wide constrictions, and 5 μm for 5 μm wide constrictions.
siRNA 5′-AAAGCAUGGACGAUCAGGAAG-3′ (SEQ ID NO: 6) was used to deplete CHMP3 (Jimenez Science 2014), SMARTpool for SUN1 and SUN2 (Dharmacon, GE LifeSciences), both 5′-GGUGGUGACGAUCUGGGCU-3′ (SEQ ID NO: 7); and 5′-[…]-3′(SEQ ID NO: 8) to target LMNA. Non-targeting siRNA (Dharmacon, GE Life Technologies) was used as the control. siRNA was transfected with Lipofectamine RNAiMAX (Invitrogen). Cells were transfected with 120 nM siRNA 48 h and again 24 h before the experiment.
For immunofluorescence, secondary antibodies anti-mouse-Alexa488 and anti-Goat-Alexa488 (Jackson ImmunoResearch Laboratories) were used. ATMi (KU-55933, TOCRIS) was used at 10 μM to inhibit DNA repair.
The inventors hypothesized that efficient resealing was responsible for the high survival rate of cells passing through constrictions. The inventors thus quantified the occurrence of cell death after passage through a single constriction in RPE1 cells either depleted for LMNA/C, or for CHMP3. As expected from previous work by others, the inventors found a dramatic increase in death in LMNA/C-depleted cells (FIG. 4A), even inside straight channels, but stronger when cells were passing constrictions where the NE ruptured for longer periods of time.
The inventors therefore hypothesized that the cell death observed upon migration through constrictions in LMNA/C-depleted cells could be caused by a defect in DNA repair combined with a high degree of DNA damage due to prolonged nuclear envelope opening. To test this hypothesis, the inventors inhibited DNA repair using an ATM inhibitor (ATMi, Fig S4E; 22), in control cells and in cells depleted for LMNA/C, or CHMP3.

Regarding `O=c1cc(-c2cccc3c2Sc2ccccc2S3)oc(N2CCOCC2)c1` [ATMi, KU-55933], the “level of cell death” value was “about 30%” (CHMP3-depleted RPE1 cells migrating through constrictions), “no effect” (CHMP3-depleted RPE1 cells that did not migrate through constrictions), “further increased” (LMNA/C-depleted RPE1 cells) and “no effect” (control RPE1 cells).

Source of the values: US10969389B2, “Method to monitor and quantify interphase nuclear envelope rupture events” (INSTITUT CURIE, priority 2016, dated 2021).
